Experimental data as given in patent US4394388A, “Method for the control of cattle grubs employing m-phenoxybenzyl and .alpha ” (American Cyanamid Company, priority 1981, dated 1983).

Tested on: Cuterebra sp.
Assay: In vivo larvicidal activity against Cuterebra sp. in artificially infested mice (dermal dip)
Settings: mice infested with 5 newly-hatched larvae, body dipped in emulsion 48 h later, larvae examined four days after treatment; for Dermal (mice) Dosage % LC50: concentration killing 50% of larvae; for Dermal (mice) Dosage % LC90: concentration killing 90% of larvae
Protocol: The larvidical activity of the compounds of the invention may be conveniently evaluated by a method accepted by the U.S. Agricultural Research Service, in which mice infected with Cuterebra spp. are treated topically with the compounds under evaluation.
White mice are artificially infested nasally, buccally, or ocularly with 5 newly-hatched larvae of Cuterebra sp. For dermal tests, 48 hours later a plastic collar is placed around the neck of each male mouse, and the portion of the body behind the collar is dipped in 200 ml of an emulsion of a test compound. A standard emulsifiable concentrate consists of 25 parts of test compound, 65 parts of xylene and 10 parts octylphenoxy polyethoxy ethanol of average molecular weight equal to 628 and having from 9 to 10 ethylene oxide units.
The skin of each mouse is examined carefully for encapsulated live larvae four days after treatment. Effectiveness of the treatments is determined by comparing numbers of larvae encapsulated in treated mice with numbers found in untreated control mice. Usually 3 mice/concentration are treated. if mice or the larvae are killed at the initial concentration of 1%, lower concentrations (0.6, 0.3, 0.2, 0.1%, etc.) are tested until there is no systemic activity or the mice survive.
Mortality data are subjected to log-prohibit analysis in order to determine dosages or concentrations that kill 50 or 90% of the larvae.

SMILES | Dermal (mice) Dosage % LC50 | Dermal (mice) Dosage % LC90
CC(C)C(C(=O)OC(C#N)c1cccc(Oc2ccccc2)c1)c1ccc(OC(F)F)cc1 (racemic) [(±)-α-cyano-m-phenoxybenzyl (+)-α-isopropyl-4-difluoromethox] [(±)-α-Cyano-m-phenoxybenzyl(+)-α-isopropyl 4-difluoromethoxyphenylacetate] | .0030% | .0056%
CC(C)C(C(=O)OC(C#N)c1cccc(Oc2ccccc2)c1)c1ccc(OC(F)F)cc1 (stereo not drawn) [α-cyano-m-phenoxybenzyl α-isopropyl-4-difluoromethoxyphenyla] [α-Cyano-m-phenoxybenzyl α-isopropyl-4-difluoromethoxyphenylacetate] | .0067% | .015%
